Patent publication US20260356860A1, “2-SUBSTITUTED 3,4A,5,7,8,8A-HEXAHYDRO-4H-THIOPYRANO[4,3-DJPYRIMIDIN-4-ONES FOR WOUND TREATMENT” (priority 2022, published 2026)

Columns and labels:
[1] = test system: HEK293 SuperTOPFlash reporter cells, Wnt promoter; test: HEK CELL Wnt Assay (luciferase reporter); format: cell-based; conditions: for IC50: serial dilutions, with or without 50 ng/mL Wnt3a, 18 h
Description: In order to determine the effect of the compounds of Formula (I) on Wnt inhibition, an in vitro assay using HEK293 SuperTOPFlash reporter cells, with the Wnt promoter driving a luciferase reporter gene, were utilized. 40,000 HEK293 SuperTOPFlash reporter cells were seeded, per well, in a 48 well plate for 24 hours, prior to administration of serial dilutions of the compound of Formula (I) to individual wells. Serial dilutions ranging from […] to 1 nM of the compound of Formula (I) were added with or without 50 ng/mL Wnt3a (Time Biosciences) and allowed to incubate with the reporter cells for 18 hours. Reporter cells with no treatment were used as negative control.

[2] = target: T1, Tankyrase 2 (TNKS2) (Homo sapiens, UniProt Q9H2K2); test: TNK2 Binding Assay (Tankyrase 2 ribosylation, chemiluminescence); format: biochemical
T1 sequence (Q9H2K2 1-1166): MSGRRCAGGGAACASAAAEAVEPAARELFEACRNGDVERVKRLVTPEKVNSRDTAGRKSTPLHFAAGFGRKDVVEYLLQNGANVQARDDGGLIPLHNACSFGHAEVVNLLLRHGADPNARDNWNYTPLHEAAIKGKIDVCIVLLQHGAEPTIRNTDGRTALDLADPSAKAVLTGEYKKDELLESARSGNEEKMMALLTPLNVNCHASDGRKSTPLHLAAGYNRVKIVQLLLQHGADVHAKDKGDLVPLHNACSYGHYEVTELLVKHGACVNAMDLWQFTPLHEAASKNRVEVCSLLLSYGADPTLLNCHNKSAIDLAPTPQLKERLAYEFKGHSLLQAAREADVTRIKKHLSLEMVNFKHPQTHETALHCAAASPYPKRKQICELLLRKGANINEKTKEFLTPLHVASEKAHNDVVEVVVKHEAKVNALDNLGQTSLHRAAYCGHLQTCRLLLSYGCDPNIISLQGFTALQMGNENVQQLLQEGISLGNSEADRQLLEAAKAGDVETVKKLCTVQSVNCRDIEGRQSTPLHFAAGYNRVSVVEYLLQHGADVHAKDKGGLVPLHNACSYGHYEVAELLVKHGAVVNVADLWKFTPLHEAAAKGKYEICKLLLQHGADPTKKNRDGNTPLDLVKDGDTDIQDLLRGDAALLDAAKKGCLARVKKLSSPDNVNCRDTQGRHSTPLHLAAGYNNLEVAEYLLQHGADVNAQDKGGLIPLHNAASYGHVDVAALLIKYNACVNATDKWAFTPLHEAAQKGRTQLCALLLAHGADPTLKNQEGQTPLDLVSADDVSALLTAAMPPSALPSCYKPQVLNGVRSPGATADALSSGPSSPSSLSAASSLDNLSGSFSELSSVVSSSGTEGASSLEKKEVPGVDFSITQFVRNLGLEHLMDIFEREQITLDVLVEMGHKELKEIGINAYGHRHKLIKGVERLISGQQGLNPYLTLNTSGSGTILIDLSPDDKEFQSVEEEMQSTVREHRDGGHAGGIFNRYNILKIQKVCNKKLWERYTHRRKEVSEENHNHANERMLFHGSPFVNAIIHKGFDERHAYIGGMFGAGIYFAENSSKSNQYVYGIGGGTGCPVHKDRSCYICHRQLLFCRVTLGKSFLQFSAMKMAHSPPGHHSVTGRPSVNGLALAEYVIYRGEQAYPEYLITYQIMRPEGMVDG
Description: Tankyrase 2 assay (n=3) was performed with the following steps: step 1, coating a 96-well plate with 50 μL/well of histone solution; step 2, conducting ribosylation reaction; and step 3, detection.
Step 1: Coating a 96-Well Plate with 50 μL/Well of Histone Solution.
A 5× histone mixture was diluted 1:5 with PBS to make a 1× histone in PBS mixture. 50 μL of the histone mixture was added to each well and incubated at 4° C. overnight. The plate was washed three times using 200 μL PBST buffer (1×PBS containing 0.05% Tween*20 (polysorbate 20) per well. The plate was tapped onto a clean paper towel to remove the liquid. The wells were blocked by adding 200 μL of blocking buffer 3 to each well. The plate was incubated at room temperature for at least 90 minutes. The plate was washed three times with 200 μL PBST buffer. The plate was tapped onto a clean paper towel to remove the liquid.
A fresh solution of 10 mM DTT in water was prepared.
A master mix was prepared and delivered to each well (25 μL/well). Master mix delivered to each well: (2.5 μL of 10×PARP assay buffer (purchased from BPS Bioscience)+2.5 μL of PARP substrate mixture 2+17.5 μL of water+2.5 μL of 10 mM fresh DTT). The concentration of DTT in the master mix was 1 mM. 25 μL of master mix was added to each well.
1×PARP buffer with DTT was prepared. 10×PARP assay buffer was diluted to 1×PARP assay buffer containing DTT by adding 1 volume of 10×PARP assay buffer+1 volume of 10 mM DTT+8 volumes of water. The concentration of DTT in the 1×PARP assay buffer was 1 mM.
5 μL of a test inhibitor was added to each well labeled as “Test Inhibitor.” For the “Positive Control,” the PARP inhibitor, XAV939, was used. For the negative control, no inhibitor is added to the assay mix.
The Tankyrase 2 (TNKS2) enzyme on ice was thawed. The tube containing the enzyme was spun briefly to recover the full content of the tube. The amount of TNKS2 enzyme required for the assay was calculated and the enzyme was diluted to 0.5 ng/μL with 1×PARP assay buffer with DTT. 16) The final concentration of TNKS2 enzyme in the assay was 2 nM. The reaction was initiated by adding 10 μL of diluted TNKS2 enzyme to each well designated “Positive Control” and “Test Inhibitor.” To each well designated as “Blank,” 10 μL of 1×PARP assay buffer with DTT was added. The plate was incubated at room temperature for 1 hour. The plate was washed three times with 100 μL of PBST buffer and the plate was tapped onto a clean paper towel.
1) Streptavidin-HRP was diluted 1:50 in Blocking buffer (purchased from BPS Bioscience) 3.50 μL of diluted Streptavidin-RP was added to each well and incubated for 30 minutes at room temperature. The plate was washed three times with 100 μL of PBST buffer and tapped onto a clean paper towel. Just before use, 1 volume of ELISA ECL Substrate A and 1 volume of ELISA ECL Substrate B were mixed on ice; and 100 μL was added to each well. Immediately, the plate was read in a luminometer or microtiter-plate reader capable of reading chemiluminescence. The “Blank” value was subtracted from all other values.

Structure (SMILES) | IC50 [2] | solubility remark in HEK CELL Wnt assay [1] | IC50 [1] | HEK CELL Wnt inhibition ([1]; @ >10,000 nM)
O=c1[nH]c(-c2ccc(-c3ccc(Br)cc3)cc2)nc2c1CSCC2 | – | – | 100 nM | –
N#Cc1ccc2c(c1)[nH]c(=O)n2[C@H]1C[C@H](c2nc3c(c(=O)[nH]2)CSCC3)C1 [Compound 2, 2-oxo-1-((1r,3r)-3-(4-oxo-3,5,7,8-tetrahydro-4H-thiopyrano[4,3-d]pyrimidin-2-yl)cyclobutyl)-2,3-dihydro-1H-benzo[d]imidazole-5-carbonitrile] | – | – | – | 60% inhibition @ >10,000 nM
O=c1[nH]c(-c2ccc3c(c2)COB3O)nc2c1CSCC2 [Compound 3, 2-(1-hydroxy-1,3-dihydrobenzo[c][1,2]oxaborol-5-yl)-7,8-dihydro-3H-thiopyrano [4,3-d]pyrimidin-4 (5H)-one] | 28 nM | – | 7500 nM | –
O=c1[nH]c(-c2ccc(-c3nc4c(c(=O)[nH]3)CSCC4)cc2)no1 [Compound 4, 3-(4-(4-oxo-3,5,7,8-tetrahydro-4H-thiopyrano[4,3-d]pyrimidin-2-yl)phenyl)-1,2,4-oxadiazol-5 (4H)-one] | 13 nM | – | > 10000 nM | –
O=c1[nH]c(/C=C/c2ccc(C(F)(F)F)c(B(O)O)c2)nc2c1CSCC2 [Compound 5, (E)-(5-(2-(4-oxo-3,5,7,8-tetrahydro-4H-thiopyrano[4,3-d]pyrimidin-2-yl)vinyl)-2-(trifluoromethyl)phenyl)boronic acid] | – | – | 5000 nM | –
O=c1[nH]c(/C=C/c2ccc(C(F)(F)F)cc2)nc2c1CSCC2 [Compound 6, (E)-2-(4-(trifluoromethyl)styryl)-3,5,7,8-tetrahydro-4H-thiopyrano[4,3-d]pyrimidin-4-one] | 2500 nM | – | 2000 nM | –
O=c1[nH]c(-c2ccc(-c3cnc(OCCO)nc3)cc2)nc2c1CSCC2 [Compound 11, 2-(4-(2-(2-hydroxyethoxy)pyrimidin-5-yl)phenyl)-3,5,7,8-tetrahydro-4H-thiopyrano[4,3-d]pyrimidin-4-one] | 21 nM | solubility issue | 100 nM | –
[2H]C1([2H])CSCc2c1nc(-c1ccc(C(F)(F)F)cc1)[nH]c2=O [Compound 13, 2-(4-(trifluoromethyl)phenyl)-3,5,7,8-tetrahydro-4H-thiopyrano[4,3-d]pyrimidin-4-one-8,8-d2] | – | – | 4 nM | –
COCCOC(C)(C)c1c(F)cc(-c2nc3c(c(=O)[nH]2)CSCC3)cc1F [Compound 16, 2-(3,5-difluoro-4-(2-(2-methoxyethoxy)propan-2-yl)phenyl)-3,5,7,8-tetrahydro-4H-thiopyrano[4,3-d]pyrimidin-4-one] | 50 nM | – | 400 nM | –
O=c1[nH]c(-c2ccc(-c3ccc(Br)nc3)nc2)nc2c1CSCC2 [Compound 19, 2-(6′-bromo-[2,3′-bipyridin]-5-yl)-3,5,7,8-tetrahydro-4H-thiopyrano[4,3-d]pyrimidin-4-one] | 40 nM | – | 2500 nM | –
O=c1[nH]c(-c2cc(F)c(-c3ccc(Br)nc3)c(F)c2)nc2c1CSCC2 [Compound 21, 2-(4-(6-bromopyridin-3-yl)-3,5-difluorophenyl)-3,5,7,8-tetrahydro-4H-thiopyrano[4,3-d]pyrimidin-4-one] | 12 nM | – | 2000 nM | –
N#Cc1ccc(-c2nc3c(c(=O)[nH]2)CSCC3)cc1 [Compound 43, 4-(4-oxo-3,5,7,8-tetrahydro-4H-thiopyrano[4,3-d]pyrimidin-2-yl)benzonitrile] | – | – | 1000 nM | –
CC1(C)OB(O)c2ccc(-c3nc4c(c(=O)[nH]3)CSCC4)cc21 [Compound 44, 2-(1-hydroxy-3,3-dimethyl-1,3-dihydrobenzo[c][1,2]oxaborol-5-yl)-3,5,7,8-tetrahydro-4H-thiopyrano[4,3-d]pyrimidin-4-one] | 630 nM | – | – | –

The next lines start with results.

IC50 [2] | solubility remark in HEK CELL Wnt assay [1] | Structure (SMILES) | IC50 [1] | HEK CELL Wnt inhibition ([1]; @ >10,000 nM)
6.5 nM | – | CC(C)(OCCO)c1ccc(-c2ccc(-c3nc4c(c(=O)[nH]3)CSCC4)cc2)cc1 [Compound 12, 2-(4′-(2-(2-hydroxyethoxy)propan-2-yl)-[1,1′-biphenyl]-4-yl)-3,5,7,8-tetrahydro-4H-thiopyrano[4,3-d]pyrimidin-4-one] | 3 nM | –
11 nM | – | O=c1[nH]c(-c2cc(F)c(B(O)O)c(F)c2)nc2c1CSCC2 [Compound 14, (2,6-difluoro-4-(4-oxo-3,5,7,8-tetrahydro-4H-thiopyrano[4,3-d]pyrimidin-2-yl)phenyl)boronic acid] | 8000 nM | –
3 nM | – | COCCOC(C)(C)c1ccc(-c2nc3c(c(=O)[nH]2)CSCC3)cc1 [Compound 17, 2-(4-(2-(2-methoxyethoxy)propan-2-yl)phenyl)-3,5,7,8-tetrahydro-4H-thiopyrano[4,3-d]pyrimidin-4-one] | 60 nM | –
4 nM | – | O=c1[nH]c(-c2ccc(-c3ccc(B(O)O)cn3)cc2)nc2c1CSCC2 [Compound 22, (6-(4-(4-oxo-3,5,7,8-tetrahydro-4H-thiopyrano[4,3-d]pyrimidin-2-yl)phenyl)pyridin-3-yl)boronic acid] | 250 nM | –
3 nM | – | O=c1[nH]c(-c2ccc(-c3ncc(B(O)O)cn3)cc2)nc2c1CSCC2 [Compound 24, (2-(4-(4-oxo-3,5,7,8-tetrahydro-4H-thiopyrano[4,3-d]pyrimidin-2-yl)phenyl)pyrimidin-5-yl)boronic acid] | 500 nM | –
8.7 nM | – | O=c1[nH]c(N2CCN(c3ccc(B(O)O)cc3)CC2)nc2c1CSCC2 [Compound 41, (4-(4-(4-oxo-3,5,7,8-tetrahydro-4H-thiopyrano[4,3-d]pyrimidin-2-yl)piperazin-1-yl)phenyl)boronic acid] | – | –
9.7 nM | – | O=c1[nH]c(N2CCN(c3c(F)cc(OCCO)cc3F)CC2)nc2c1CSCC2 [Compound 42, 2-(4-(2,6-difluoro-4-(2-hydroxyethoxy)phenyl)piperazin-1-yl)-3,5,7,8-tetrahydro-4H-thiopyrano[4,3-d]pyrimidin-4-one] | – | –
